The target of test [1] is T1, human adrenergic-α2A receptor (Homo sapiens, UniProt P08913).
T1 construct: expressed in transfected cells; membrane preparation
T1 sequence (P08913 1-465): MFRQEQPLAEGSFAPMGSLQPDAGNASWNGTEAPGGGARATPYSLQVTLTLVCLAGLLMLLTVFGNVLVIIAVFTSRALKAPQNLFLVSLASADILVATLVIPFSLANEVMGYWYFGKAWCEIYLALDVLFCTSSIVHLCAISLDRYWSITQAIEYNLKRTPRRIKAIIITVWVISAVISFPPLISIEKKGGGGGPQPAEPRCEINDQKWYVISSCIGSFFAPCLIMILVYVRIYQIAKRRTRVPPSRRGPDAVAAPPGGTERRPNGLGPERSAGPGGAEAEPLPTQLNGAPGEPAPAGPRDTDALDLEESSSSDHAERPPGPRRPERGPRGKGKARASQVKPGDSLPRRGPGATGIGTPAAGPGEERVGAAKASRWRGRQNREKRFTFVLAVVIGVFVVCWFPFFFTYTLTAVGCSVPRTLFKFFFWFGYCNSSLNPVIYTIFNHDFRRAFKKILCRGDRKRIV
Kind of test: Radioligand binding experiment for α2A-adrenoceptor ([3H]-raulwolscine competition, CHO cell membranes). Particulars: [3H]raulwolscine 1 nM, membranes of CHO cells transfected with human α2A receptor; read-out: pIC50 α2A (converted). Here is the method:
(§1) The interaction of the compounds of Formula (I) with α2C-adrenoceptor receptors was assessed in in vitro radioligand binding experiments. In general, a low concentration of a radioligand with a high binding affinity for a particular receptor or transporter is incubated with a sample of a tissue preparation enriched in a particular receptor or transporter or with a preparation of cells expressing cloned human receptors in a buffered medium. During the incubation, the radioligand binds to the receptor or transporter. When equilibrium of binding is reached, the receptor bound radioactivity is separated from the non-bound radioactivity, and the receptor- or transporter-bound activity is counted. The interaction of the test compounds with the receptor is assessed in competition binding experiments. Various concentrations of the test compound are added to the incubation mixture containing the receptor- or transporter preparation and the radioligand. The test compound in proportion to its binding affinity and its concentration inhibits binding of the radioligand. The radioligand used for […] receptor binding was [^3H]-raulwolscine.
(§2) CHO cells, stabile transfected with human adrenergic-α2A-, -α2B or α2C receptor cDNA, were cultured in Dulbecco's Modified Eagle's Medium (DMEM)/Nutrient mixture Ham's F12 (ratio 1:1)(Gibco, Gent-Belgium) supplemented with 10% heat inactivated fetal calf serum (Life Technologies, Merelbeke-Belgium) and antibiotics (100 IU/ml penicillin G, 100 μg/ml streptomycin sulphate, 110 μg/ml pyruvic acid and 100 μg/ml L-glutamine). One day before collection, cells were induced with 5 mM sodiumbutyrate. Upon 80-90% of confluence, cells were scraped in phosphate buffered saline without Ca^2+ and Mg^2+ and collected by centrifugation at 1500×g for 10 min. The cells were homogenised in Tris-HCl 50 mM using an Ultraturrax homogenizer and centrifuged for 10 min at 23,500×g. The pellet was washed once by resuspension and rehomogenization and the final pellet was resuspended in Tris-HCl, divided in 1 ml aliquots and stored at −70° C.
(§3) Membranes were thawed and re-homogenized in incubation buffer (glycylglycine 25 mM, pH 8.0). In a total volume of 500 μl, 2-10 μg protein was incubated with [^3H]raulwolscine (NET-722) (New England Nuclear, USA) (1 nM final concentration) with or without competitor for 60 min at 25° C. followed by rapid filtration over GF/B filter using a Filtermate196 harvester (Packard, Meriden, Conn.). Filters were rinsed extensively with ice-cold rinsing buffer (Tris-HCl 50 mM pH 7.4). Filter-bound radioactivity was determined by scintillation counting in a Topcount (Packard, Meriden, CT) and results were expressed as counts per minute (cpm). Non-specific binding was determined in the presence of 1 μM oxymetazoline for hα2A- and hα2B receptors and 1 μM spiroxatrine for hα2C receptors.
(§4) Data from assays in the presence of compound were calculated as a percentage of total binding measured in the absence of test compound. Inhibition curves, plotting percent of total binding versus the log value of the concentration of the test compound, were automatically generated, and sigmoidal inhibition curves were fitted using non-linear regression. The pIC50 values of test compounds were derived from individual curves.

In test [2] the target is T2, human adrenergic-α2B receptor (Homo sapiens, UniProt P18089).
T2 construct: expressed in transfected cells; membrane preparation
T2 sequence (P18089 1-450): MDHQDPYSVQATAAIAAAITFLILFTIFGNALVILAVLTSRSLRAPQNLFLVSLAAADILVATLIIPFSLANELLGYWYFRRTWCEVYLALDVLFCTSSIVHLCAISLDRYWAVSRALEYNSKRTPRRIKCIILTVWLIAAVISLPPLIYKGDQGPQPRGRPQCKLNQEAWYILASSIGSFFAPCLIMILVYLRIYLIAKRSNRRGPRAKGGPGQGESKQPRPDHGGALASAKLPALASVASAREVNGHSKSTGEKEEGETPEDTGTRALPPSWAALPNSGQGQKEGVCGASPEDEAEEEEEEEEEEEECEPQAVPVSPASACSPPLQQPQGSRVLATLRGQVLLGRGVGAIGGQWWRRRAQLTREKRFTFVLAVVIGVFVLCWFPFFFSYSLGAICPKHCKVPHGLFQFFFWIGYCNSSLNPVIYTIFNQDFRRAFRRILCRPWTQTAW
The experiment in a line: Radioligand binding experiment for α2B-adrenoceptor ([3H]-raulwolscine competition, CHO cell membranes). Particulars: [3H]raulwolscine 1 nM, membranes of CHO cells transfected with human α2B receptor; read-out: pIC50 α2B (converted). Here is the method: as §1, §2, §3, §4

The target of test [3] is T3, human adrenergic-α2C receptor (Homo sapiens, UniProt P18825).
T3 construct: expressed in transfected cells; membrane preparation
T3 sequence (P18825 1-462): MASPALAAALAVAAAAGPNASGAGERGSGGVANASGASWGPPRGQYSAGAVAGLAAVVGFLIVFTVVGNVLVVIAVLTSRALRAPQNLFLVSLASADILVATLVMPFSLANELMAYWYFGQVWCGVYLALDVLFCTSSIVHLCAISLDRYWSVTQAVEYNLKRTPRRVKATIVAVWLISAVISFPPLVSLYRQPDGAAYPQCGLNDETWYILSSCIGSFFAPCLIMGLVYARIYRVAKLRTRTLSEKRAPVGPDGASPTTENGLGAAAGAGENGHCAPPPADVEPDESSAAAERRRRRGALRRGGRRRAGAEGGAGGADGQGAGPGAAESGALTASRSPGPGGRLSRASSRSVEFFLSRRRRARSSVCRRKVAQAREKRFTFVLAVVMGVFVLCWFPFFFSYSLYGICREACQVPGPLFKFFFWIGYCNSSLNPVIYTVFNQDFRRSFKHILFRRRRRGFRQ
The experiment in a line: Radioligand binding experiment for α2C-adrenoceptor ([3H]-raulwolscine competition, CHO cell membranes). Particulars: [3H]raulwolscine 1 nM, membranes of CHO cells transfected with human α2C receptor; read-out: pIC50 α2C (converted). The protocol:
as §1, §2, §3, §4

For `O=c1n(CC2CCN(CCOc3ccccc3)CC2)cnn1CCN1CCOCC1` [compound 67], the IC50 was 0.398 µM in test [1], 0.1 µM in test [2] and 0.0251 µM in test [3].

Take `CN1CCCN(c2ccc(-n3cnn(CCNCCOc4ccccc4)c3=O)cc2)CC1` [compound 12]: the IC50 in test [1] is 0.126 µM; in test [2], 0.1 µM; in test [3], 0.00158 µM.

As for `C/C(=C\c1ccccc1)CN1CCC(n2cnn(-c3ccc(CN4CCOCC4)cc3)c2=O)CC1` [compound 80], the IC50 in test [1] is 0.0631 µM; in test [3], 0.0398 µM.

With `O=c1n(-c2ccc(CN3CCCCC3)cc2)cnn1CC1CCN(CCOc2ccccc2)CC1` [compound 64], the IC50 was 0.0501 µM in test [1], 0.0126 µM in test [2] and 0.000631 µM in test [3].

On to `Cc1cc(CN2CCC(Cn3ncn(-c4ccc(CN5CCOCC5)cc4)c3=O)CC2)oc1C` [compound 76], for which the IC50 in test [1] is > 10 µM; in test [3], 0.794 µM.

With `COc1ccc(N2CCN(c3ccc(-n4cnn(Cc5ccc(CN6CCOCC6)cc5)c4=O)cc3)CC2)cc1` [compound 59], the IC50 is 1.58 µM in test [1] and 0.631 µM in test [3].

Turning to `COc1ccc(N2CCN(c3ccc(-n4cnn(Cc5ccc(CN)cc5)c4=O)cc3)CC2)cc1` [compound 11], the IC50 was 7.94 µM in test [1] and 0.794 µM in test [3].

Turning to `C/C(=C\c1ccccc1)CN1CCC(Cn2ncn(-c3ccc(CN4CCOCC4)cc3)c2=O)CC1` [compound 70], the IC50 is 0.398 µM in test [1] and 0.0398 µM in test [3].

As for `O=c1n(CC2CCN(CCOc3ccccc3)CC2)cnn1CCN1CCN(Cc2ccc3ncccc3c2)CC1` [compound 126], the IC50 was 0.2 µM in test [1] and 0.0126 µM in test [3].

As to `O=c1n(CC2CCN(CCOc3ccccc3)CC2)cnn1CCN1CCN(Cc2cc3ccccc3s2)CC1` [compound 130], the IC50 in test [1] is 0.0501 µM; in test [3], 0.00251 µM.

Regarding `N#Cc1cccc(NCCCN2CCN(CCn3ncn(CC4CCN(CCOc5ccccc5)CC4)c3=O)CC2)c1` [compound 124], the IC50 in test [1] was 0.0631 µM; in test [3], 0.00158 µM.

`COc1ccc(N2CCN(c3ccc(-n4cnn(C5CCN(CCOc6ccccc6)CC5)c4=O)cc3)CC2)cc1` [compound 58]: the IC50 in test [1] was 1.26 µM; in test [3], 0.0501 µM.

On to `O=c1n(CCNCCOc2ccccc2)nnn1-c1ccc(CN2CCOCC2)cc1` [compound 106], for which the IC50 in test [1] is 0.398 µM; in test [3] it was 0.0398 µM.

`C/C(=C\c1ccccc1)CN1CCC(n2cnn(Cc3ccc(CN4CCOCC4)cc3)c2=O)CC1` [compound 81]: the IC50 in test [1] was 0.631 µM; in test [3], 0.0794 µM.

As for `O=c1n(-c2ccc(CN3CCOCC3)cc2)cnn1CC1CCN(Cc2ccc3ccccc3c2)CC1` [compound 74], the results for the IC50 in test [1] and in test [3] were 0.794 µM and 0.158 µM, respectively.

In the case of `COc1ccc(N2CCN(c3ccc(-n4cnn(C5CCN(Cc6ccc7c(c6)OCCO7)CC5)c4=O)cc3)CC2)cc1` [compound 56], the IC50 in test [1] was > 10 µM; in test [3] it was 1 µM.

Turning to `C/C(=C\c1ccc(F)cc1)CN1CCN(CCn2ncn(Cc3ccc(CN)cc3)c2=O)CC1` [compound 35], the figures for the IC50 in test [1] and in test [3] were 0.126 µM and 0.0501 µM, respectively.

Turning to `COc1ccc(N2CCN(c3ccc(-n4cnn(CCN(C)CCOc5ccccc5)c4=O)cc3)CC2)cc1` [compound 9], the IC50 was > 10 µM in test [1] and 0.794 µM in test [3].

Turning to `O=c1n(CC2CCN(CCOc3ccccc3)CC2)cnn1CCN1CC2CC=CCC1CN2c1ccc2ccccc2c1` (stereo not drawn) [compound 131], the IC50 in test [1] was 0.126 µM; in test [3], 0.00794 µM.

As to `O=c1n(CC2CCN(CCOc3ccccc3)CC2)cnn1CCN1CCN(Cc2c[nH]c3ccc(F)cc23)CC1` [compound 129], the values for the IC50 in test [1] and in test [3] were 0.0501 µM and 0.002 µM, respectively.

Turning to `C/C(=C\c1ccccc1)CN1CCC(n2ncn(-c3ccc(CN4CCOCC4)cc3)c2=O)CC1` [compound 69], the IC50 in test [1] was 0.158 µM; in test [3], 0.0251 µM.

`O=c1n(CC2CCN(CCOc3ccccc3)CC2)cnn1CCN1CCN(c2cccc3c2OCCO3)CC1` [compound 127]: the IC50 was 0.0631 µM in test [1] and 0.00398 µM in test [3].

On to `COc1ccc(N2CCN(c3ccc(-n4cnn(C5CCN(C/C(C)=C/c6ccccc6)CC5)c4=O)cc3)CC2)cc1` [compound 57], for which the values for the IC50 in test [1] and in test [3] were > 10 µM and 0.0794 µM, respectively.

`CC(NCCOc1ccccc1)C(C)n1ncn(-c2ccc(N3CCN(c4ccc(O)cc4)CC3)cc2)c1=O` (single isomer, unassigned) [compound 6]: the IC50 in test [1] was 7.94 µM; in test [3], 0.2 µM.

As to `O=c1n(-c2ccc(CN3CCOCC3)cc2)cnn1CC1CCN(Cc2cc3ccccc3o2)CC1` [compound 77], the figures for the IC50 in test [1] and in test [3] were 3.16 µM and 0.251 µM, respectively.

For `COc1ccccc1C1CCN(c2ccc(-n3cnn(CCNCCOc4ccccc4)c3=O)cc2)C1` (stereo not drawn) [compound 15], the IC50 in test [1] was 0.794 µM; in test [3], 0.1 µM.

Regarding `O=c1n(CC2CCN(CCOc3ccccc3)CC2)cnn1CCN1CCN(Cc2cc3ccccc3[nH]2)CC1` [compound 128], the IC50 in test [1] is 0.0794 µM; in test [3], 0.0126 µM.

As to `O=c1n(-c2ccc(N3CCOCC3)cc2)cnn1CCNCCOc1ccccc1` [compound 22], the IC50 is 0.794 µM in test [1] and 0.0501 µM in test [3].

Turning to `CC(C)(C)C(=O)Cn1cnn(CC2CCN(CCOc3ccccc3)CC2)c1=O` [compound 132], the IC50 in test [1] is 0.0631 µM; in test [3], 0.00501 µM.

With `O=c1n(-c2ccc(CN3CCOCC3)cc2)cnn1CCNCCOc1ccc(F)cc1` [compound 25], the IC50 in test [1] was 2.51 µM; in test [3], 0.0501 µM.

The record behind these values is patent US20100029620A1, “SUBSTITUTED TRIAZOLINE, TETRAZOLONE AND IMIDAZOLONE DERIVATIVES FOR USE AS A MEDICINE” (JANSSEN PHARMACEUTICA N.V., priority 2004, published 2010).
